Reference: publication PMC3598725, “Transporter engineering for improved tolerance against alkane biofuels in Saccharomyces cerevisiae” (Biotechnology for Biofuels, 2013)

Legend:
ABC3 = target: T1, ABC3 (Yarrowia lipolytica, UniProt Q6CFY4); assay: intracellular alkane level by GC, S. cerevisiae expressing transporter vs empty plasmid; format: cell-based; conditions: 48 h, whole-cell efflux, indirect
T1 construct: gene YALI0_B02544g; full-length, C-terminal 6xHis tag, pYES2 (GAL1) in S. cerevisiae BY4741; 167 kDa on western blot; plasma membrane
T1 sequence (Q6CFY4 1-1485): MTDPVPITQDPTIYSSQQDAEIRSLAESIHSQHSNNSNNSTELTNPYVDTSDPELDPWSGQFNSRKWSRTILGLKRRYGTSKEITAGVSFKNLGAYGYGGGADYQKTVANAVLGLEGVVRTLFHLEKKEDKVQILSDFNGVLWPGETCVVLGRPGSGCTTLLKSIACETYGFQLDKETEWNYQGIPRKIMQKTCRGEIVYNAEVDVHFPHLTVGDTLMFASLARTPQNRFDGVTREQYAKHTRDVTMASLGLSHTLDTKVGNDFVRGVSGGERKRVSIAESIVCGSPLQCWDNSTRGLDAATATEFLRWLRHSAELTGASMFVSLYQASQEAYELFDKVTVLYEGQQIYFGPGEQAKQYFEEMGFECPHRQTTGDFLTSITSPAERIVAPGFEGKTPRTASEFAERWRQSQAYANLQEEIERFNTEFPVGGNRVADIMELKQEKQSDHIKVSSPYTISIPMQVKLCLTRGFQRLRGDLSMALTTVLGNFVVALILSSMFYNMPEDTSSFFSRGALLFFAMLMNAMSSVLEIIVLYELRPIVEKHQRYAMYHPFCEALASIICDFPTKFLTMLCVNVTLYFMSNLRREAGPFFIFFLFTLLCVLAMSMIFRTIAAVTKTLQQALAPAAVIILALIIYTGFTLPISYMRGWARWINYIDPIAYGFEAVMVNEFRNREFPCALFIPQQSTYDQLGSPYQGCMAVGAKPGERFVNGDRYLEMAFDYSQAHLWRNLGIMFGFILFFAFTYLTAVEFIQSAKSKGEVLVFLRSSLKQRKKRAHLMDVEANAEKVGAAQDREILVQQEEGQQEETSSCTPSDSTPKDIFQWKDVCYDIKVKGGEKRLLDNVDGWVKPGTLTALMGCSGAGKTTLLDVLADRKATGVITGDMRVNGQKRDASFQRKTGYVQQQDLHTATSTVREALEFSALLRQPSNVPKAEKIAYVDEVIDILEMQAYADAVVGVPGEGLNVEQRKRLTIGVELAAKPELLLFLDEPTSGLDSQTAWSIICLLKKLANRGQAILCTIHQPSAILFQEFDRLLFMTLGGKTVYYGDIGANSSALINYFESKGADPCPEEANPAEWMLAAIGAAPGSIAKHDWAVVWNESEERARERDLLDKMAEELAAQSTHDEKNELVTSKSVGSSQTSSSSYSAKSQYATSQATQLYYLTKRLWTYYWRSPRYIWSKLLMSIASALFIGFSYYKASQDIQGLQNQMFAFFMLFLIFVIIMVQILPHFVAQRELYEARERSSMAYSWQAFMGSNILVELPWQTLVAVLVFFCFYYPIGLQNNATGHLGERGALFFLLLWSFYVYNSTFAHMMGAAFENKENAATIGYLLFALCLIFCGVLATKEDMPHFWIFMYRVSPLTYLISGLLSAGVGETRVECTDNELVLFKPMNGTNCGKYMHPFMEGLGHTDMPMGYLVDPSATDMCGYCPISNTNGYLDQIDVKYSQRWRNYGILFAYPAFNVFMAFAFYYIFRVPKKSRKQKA

ABC2 = target: T2, ABC2 (Yarrowia lipolytica, UniProt Q6CBB8); assay: as above; format: cell-based; conditions: 48 h, whole-cell efflux, indirect
T2 construct: gene YALI0_C20265g; full-length, C-terminal 6xHis tag, pYES2 (GAL1) in S. cerevisiae BY4741; 165 kDa on western blot; plasma membrane
T2 sequence (Q6CBB8 1-1469): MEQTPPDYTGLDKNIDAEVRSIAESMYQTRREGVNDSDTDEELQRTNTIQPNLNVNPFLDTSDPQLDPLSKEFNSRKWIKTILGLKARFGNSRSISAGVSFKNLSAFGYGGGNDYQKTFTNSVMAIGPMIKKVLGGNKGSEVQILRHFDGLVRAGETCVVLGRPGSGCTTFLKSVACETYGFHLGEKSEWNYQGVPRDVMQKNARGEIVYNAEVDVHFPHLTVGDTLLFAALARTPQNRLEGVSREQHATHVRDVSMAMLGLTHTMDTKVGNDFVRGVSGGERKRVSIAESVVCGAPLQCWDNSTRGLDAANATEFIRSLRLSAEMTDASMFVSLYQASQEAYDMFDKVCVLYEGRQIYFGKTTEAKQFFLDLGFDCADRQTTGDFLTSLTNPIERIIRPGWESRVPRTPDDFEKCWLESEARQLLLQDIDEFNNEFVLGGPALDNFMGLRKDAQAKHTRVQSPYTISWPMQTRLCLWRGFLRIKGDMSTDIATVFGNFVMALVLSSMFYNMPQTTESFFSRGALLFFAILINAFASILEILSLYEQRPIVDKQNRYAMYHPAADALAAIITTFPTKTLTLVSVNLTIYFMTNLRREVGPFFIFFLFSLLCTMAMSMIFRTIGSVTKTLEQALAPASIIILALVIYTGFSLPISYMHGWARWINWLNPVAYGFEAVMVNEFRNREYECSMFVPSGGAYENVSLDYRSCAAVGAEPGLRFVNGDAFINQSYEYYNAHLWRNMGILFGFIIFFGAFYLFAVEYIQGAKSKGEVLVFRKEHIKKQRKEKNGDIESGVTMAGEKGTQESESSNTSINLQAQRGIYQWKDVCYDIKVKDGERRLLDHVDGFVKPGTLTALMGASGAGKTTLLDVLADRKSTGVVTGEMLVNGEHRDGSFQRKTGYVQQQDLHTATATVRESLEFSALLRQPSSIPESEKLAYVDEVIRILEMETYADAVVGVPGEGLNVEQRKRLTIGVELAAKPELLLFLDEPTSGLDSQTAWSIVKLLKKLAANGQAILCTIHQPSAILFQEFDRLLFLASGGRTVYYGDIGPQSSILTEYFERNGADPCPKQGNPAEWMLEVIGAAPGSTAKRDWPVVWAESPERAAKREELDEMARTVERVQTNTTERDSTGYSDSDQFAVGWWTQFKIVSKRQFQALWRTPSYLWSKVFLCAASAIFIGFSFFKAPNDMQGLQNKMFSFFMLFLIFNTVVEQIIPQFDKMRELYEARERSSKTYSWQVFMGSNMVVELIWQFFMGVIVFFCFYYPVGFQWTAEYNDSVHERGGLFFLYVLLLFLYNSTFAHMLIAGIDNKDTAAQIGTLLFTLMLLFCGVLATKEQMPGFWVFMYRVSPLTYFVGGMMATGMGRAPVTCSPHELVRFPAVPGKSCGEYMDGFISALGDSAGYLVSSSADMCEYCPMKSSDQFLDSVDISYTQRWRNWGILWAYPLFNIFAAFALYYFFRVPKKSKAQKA

CCCCCCCCCC [decane]
fold lower intracellular level (ABC3; 0.5% (vol/vol) decane): ~ 5 fold | fold lower intracellular level (ABC2; 0.5% (vol/vol) decane): ~ 5 fold

CCCCCCCCCCC [undecane]
fold lower intracellular level (ABC3; 20% (vol/vol) undecane): ~ 30 fold | fold lower intracellular level (ABC2; 20% (vol/vol) undecane): ~ 30 fold
